These compounds were tested against T1, Recombinant human EP300 containing the bromodomain (EP300-BD (1040-1161)) (Homo sapiens, UniProt Q09472) (assay: EP300 Alphascreen binding assay).
T1 construct: Recombinant human EP300 bromodomain (EP300-BD (1040-1161)); made in house; host or cells: E. coli BL21-CodonPlus (DE3), modified pET vector
T1 sequence (Q09472 1040-1161): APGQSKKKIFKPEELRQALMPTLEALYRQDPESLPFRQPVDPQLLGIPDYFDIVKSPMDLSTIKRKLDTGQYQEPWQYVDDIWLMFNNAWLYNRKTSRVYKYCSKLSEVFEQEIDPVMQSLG
Method in brief: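 Displacement of a biotinylated acetyl-K56 histone H3 peptide from the N-His bromodomain construct (1040-1161) measured by AlphaScreen proximity, beads at 7.5 μg/ml final, read 60 min after addition. Protein, peptide and compound first incubated 1 h at room temperature, pH 7.5 HEPES buffer; IC50 by four-parameter logistic fit.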
Compound Cc1noc(C)c1-c1cnc2c(c1)c(-c1ccc(C(=O)O)cc1OC(F)(F)F)cn2-c1ccccc1C#N [P-0309, 4-(1-(2-cyanophenyl)-5-(3,5-dimethylisoxazol-4-yl)-1H-pyrrolo[2,3-b]pyridin-3-yl)-3-(trifluoromethoxy)benzoic acid] has an IC50 of 0.0001 to 1 µM.
Cc1cc(C#N)ccc1-n1cc(-c2ccc(C(=O)O)cc2OC(F)(F)F)c2cc(-c3c(C)noc3C)cnc21 [P-0310, 4-(1-(4-cyano-2-methylphenyl)-5-(3,5-dimethylisoxazol-4-yl)-1H-pyrrolo[2,3-b]pyridin-3-yl)-3-(trifluoromethoxy)benzoic acid] was tested, and the IC50 was 0.0001 to 1 µM.
For COc1ccc(-n2cc(-c3ccc(C(=O)O)cc3OC(F)(F)F)c3cc(-c4c(C)noc4C)cnc32)c(F)c1 [P-0311, 4-(5-(3,5-dimethylisoxazol-4-yl)-1-(2-fluoro-4-methoxyphenyl)-1H-pyrrolo[2,3-b]pyridin-3-yl)-3-(trifluoromethoxy)benzoic acid], the IC50 was 0.0001 to 1 µM.
In the case of C=C(C)c1ccccc1-n1cc(-c2ccc(C(=O)O)cc2OC(F)(F)F)c2cc(-c3c(C)noc3C)cnc21 [P-0312, 4-(5-(3,5-dimethylisoxazol-4-yl)-1-(2-(prop-1-en-2-yl)phenyl)-1H-pyrrolo[2,3-b]pyridin-3-yl)-3-(trifluoromethoxy)benzoic acid], the IC50 is reported as 0.0001 to 1 µM.
Cc1noc(C)c1-c1cnc2c(c1)c(-c1ccc(C(=O)O)cc1OC(F)(F)F)cn2-c1ccc(C#N)cc1 [P-0313, 4-(1-(4-cyanophenyl)-5-(3,5-dimethylisoxazol-4-yl)-1H-pyrrolo[2,3-b]pyridin-3-yl)-3-(trifluoromethoxy)benzoic acid] showed an IC50 of 0.0001 to 1 µM.
Cc1noc(C)c1-c1cnc2c(c1)c(-c1ccc(C(=O)O)cc1OC(F)(F)F)cn2-c1ccc(C(C)(C)O)cc1 [P-0314, 4-(5-(3,5-dimethylisoxazol-4-yl)-1-(4-(2-hydroxypropan-2-yl)phenyl)-1H-pyrrolo[2,3-b]pyridin-3-yl)-3-(trifluoromethoxy)benzoic acid] gave an IC50 of 0.0001 to 1 µM.
With Cc1noc(C)c1-c1cnc2c(c1)c(-c1ccc(C(=O)O)cc1OC(F)(F)F)cn2-c1ccsc1 [P-0315, 4-(5-(3,5-dimethylisoxazol-4-yl)-1-(thiophen-3-yl)-1H-pyrrolo[2,3-b]pyridin-3-yl)-3-(trifluoromethoxy)benzoic acid] the IC50 was 0.0001 to 1 µM.

From patent US11446287B2, “Compounds and methods for EP300 or CBP modulation and indications therefor” (Opna Immuno-Oncology SA, priority 2019, dated 2022)
